45 compounds from ChEMBL document CHEMBL1152873, “Pseurotin A and its analogues as inhibitors of immunoglobulin E [correction of immunoglobuline E] production” (Bioorg Med Chem Lett, 2009) can be followed below.

A short description of test [1]: Inhibition of IL4 and LPS-induced IgE production in BALB/c mouse spleen B cell after 6 days by ELISA. The format is functional, tissue-based. The settings on record: 144 h.
Test [2] has as its system K562. Nature of the test: Cytotoxicity against human K562 cells. The test is classed as functional, cell-based.
Test [3] is described as follows: Inhibition of PHA-induced BALB/c mouse T cell proliferation at 10 uM. The format is cell-based.
A short description of test [4]: Cytotoxicity against BALB/c mouse B cells assessed as cell viability. The test is classed as cell-based.
Test [5] has as its system B. Kind of test: Inhibition of IL4 and LPS-induced IgG production in BALB/c mouse spleen B cell after 6 days by ELISA. The format is functional, tissue-based. (In general: ELISA stands for enzyme-linked immunosorbent assay.)
In test [6] the test system is B. Nature of the test: Inhibition of IL4 and LPS-induced IgM production in BALB/c mouse spleen B cell after 6 days by ELISA. The test is classed as functional, tissue-based.
The nature of test [7]: Selectivity for IgE production in BALB/c mouse spleen B cells over IgG2a production in BALB/c mouse spleen B cells. The format is functional.
Test [8] in a line: Selectivity for IgE production in BALB/c mouse spleen B cells over IgG1 production in BALB/c mouse spleen B cells. The test is classed as functional.
Test [9] is described as follows: Selectivity for IgE production in BALB/c mouse spleen B cells over IgM production in BALB/c mouse spleen B cells. The test is classed as functional.
Test [10] has as its system Lymphocyte. Kind of test: Immunosuppressive activity in rat lymphocytes assessed as inhibition of mixed-lymphocyte reaction. The test is classed as functional, cell-based.
Test [11] concerns Lymphocyte. Nature of the test: Immunosuppressive activity in rat lymphocytes assessed as inhibition of mixed-lymphocyte reaction at 10 uM. The format is functional, cell-based.

The source made the active and inactive calls. The rule behind the calls is not given here. A value given as a limit tells only on which side of the number the result lay.

For orientation: IC50 means the concentration that gives 50% inhibition. In [1], `CNCC1=C(C)C(=O)[C@]2(O1)C(=O)N[C@@](OC)(C(=O)c1ccccc1)[C@@H]2O` came in with an IC50 greater than 10 µM.

On to `CCCCCC[C@H](O)[C@H](O)C1=C(C)C(=O)[C@]2(O1)C(=O)N[C@@](OC)(C(=O)c1ccccc1)[C@@H]2O`, for which, in [1], the IC50 is greater than 10 µM.

For `COC(=O)CC[C@H](O)[C@H](O)C1=C(C)C(=O)[C@]2(O1)C(=O)N[C@@](OC)(C(=O)c1ccccc1)[C@@H]2O`, in test [1], the IC50 is greater than 10 µM.

Turning to `CO[C@@]1(C(=O)c2ccccc2)NC(=O)[C@]2(OC(C=O)=C(C)C2=O)[C@H]1O`, in test [1], the IC50 was greater than 10 µM.

With `CC/C=C\[C@@H]1O[C@H]1C1=C(C)C(=O)[C@]2(O1)C(=O)N[C@@](OC)(C(=O)c1ccccc1)[C@@H]2O`, the IC50 in [1] is greater than 10 µM.

Take `CCOC(=O)/C=C/C1=C(C)C(=O)[C@]2(O1)C(=O)N[C@@](OC)(C(=O)c1ccccc1)[C@@H]2O`: the IC50 in test [1] was greater than 10 µM.

Regarding `CC/C=C\[C@H](O)[C@H](O)C1=C(C)C(=O)[C@]2(O1)C(=O)N[C@@](OC)(C(=O)c1ccccc1F)[C@@H]2O`, the IC50 in test [1] was greater than 10 µM.

Turning to `CC/C=C\[C@H](O)[C@H](O)C1=C(C)C(=O)[C@]2(O1)C(=O)N[C@@](OC)(C(=O)c1cccc(F)c1)[C@@H]2O`, the IC50 in test [1] is greater than 10 µM.

`CO[C@@]1(C(=O)c2ccccc2)NC(=O)[C@]2(OC(/C=C/C=O)=C(C)C2=O)[C@H]1O` gave an IC50 in test [1] greater than 10 µM.

In [1], `CO[C@@]1(C(=O)c2ccccc2)NC(=O)[C@]2(OC(/C=C/C#N)=C(C)C2=O)[C@H]1O` had an IC50 greater than 10 µM.

In turn, `COC(=O)/C=C/[C@H](O)[C@H](O)C1=C(C)C(=O)[C@]2(O1)C(=O)N[C@@](OC)(C(=O)c1ccccc1)[C@@H]2O` registered an IC50 in test [1] greater than 10 µM.

Turning to `CO[C@@]1(C(=O)c2ccccc2)NC(=O)[C@]2(OC(CNCc3ccccc3)=C(C)C2=O)[C@H]1O`, the IC50 in test [1] is greater than 10 µM.

For the compound `C=CCNCC1=C(C)C(=O)[C@]2(O1)C(=O)N[C@@](OC)(C(=O)c1ccccc1)[C@@H]2O`, the IC50 in test [1] is greater than 10 µM.

In [1], `CO[C@@]1(C(=O)c2ccccc2)NC(=O)[C@]2(OC(CN(C)Cc3ccccc3)=C(C)C2=O)[C@H]1O` yielded a half-inhibitory concentration (IC50) greater than 10 µM.

As for `CC/C=C/[C@H](O)[C@H](O)C1=C(C)C(=O)[C@]2(O1)C(=O)N[C@@](OC)(C(=O)c1ccccc1)[C@@H]2O`, the IC50 in test [1] is greater than 10 µM.

The compound `C/C=C/[C@H](O)[C@H](O)C1=C(C)C(=O)[C@]2(O1)C(=O)N[C@@](OC)(C(=O)c1ccccc1)[C@@H]2O` had an IC50 in test [1] greater than 10 µM.

In test [1], `CCOC(=O)/C=C\C1=C(C)C(=O)[C@]2(O1)C(=O)N[C@@](OC)(C(=O)c1ccccc1)[C@@H]2O` registered an IC50 greater than 10 µM.

`CO[C@@]1(C(=O)c2ccccc2)NC(=O)[C@]2(OC([C@@H](O)[C@@H](O)C=C3CCCCC3)=C(C)C2=O)[C@H]1O` registered an IC50 in test [1] greater than 10 µM.

Regarding `CCOC(=O)/C(C)=C/C1=C(C)C(=O)[C@]2(O1)C(=O)N[C@@](OC)(C(=O)c1ccccc1)[C@@H]2O`, the IC50 in test [1] is greater than 10 µM.

For `CO[C@@]1(C(=O)c2ccccc2)NC(=O)[C@]2(OC(CO)=C(C)C2=O)[C@H]1O`, the IC50 in test [1] was greater than 10 µM.

For the compound `CO[C@@]1(C(=O)c2ccccc2)NC(=O)[C@]2(OC(/C=C/C=C/C(C)=O)=C(C)C2=O)[C@H]1O`, the IC50 in [1] was greater than 10 µM.

For `CCC[C@H](O)[C@H](O)C1=C(C)C(=O)[C@]2(O1)C(=O)N[C@@](OC)(C(=O)c1ccccc1)[C@@H]2O`, in test [1], the IC50 was greater than 10 µM.

For the compound `CC/C=C\[C@H]1OC(C)(C)O[C@@H]1C1=C(C)C(=O)[C@]2(O1)C(=O)N[C@@](OC)(C(=O)c1ccccc1)[C@@H]2O`, the IC50 in [1] is greater than 10 µM.

`CO[C@@]1(C(=O)c2ccccc2)NC(=O)[C@]2(OC([C@@H](O)[C@@H](O)CCCCc3ccccc3)=C(C)C2=O)[C@H]1O` had an IC50 in [1] greater than 10 µM.

As usually defined, the inhibition is the share of the control response that was lost under treatment. Read a low inhibition as little suppression. Consider `CCCCNCC1=C(C)C(=O)[C@]2(O1)C(=O)N[C@@](OC)(C(=O)c1ccccc1)[C@@H]2O`, for which the IC50 in test [2] was greater than 10 µM; in test [4], greater than 10 µM; in test [1], 3.1 µM. This compound also yielded an inhibition at 10 µM in test [3] of 2%.

`CO[C@@]1(C(=O)c2ccccc2)NC(=O)[C@]2(OC(CN3CCCCC3)=C(C)C2=O)[C@H]1O` had an IC50 in [1] greater than 10 µM.

In test [1], `CO[C@@]1(C(=O)c2ccccc2)NC(=O)[C@]2(OC([C@@H](O)[C@@H](O)/C=C/CCc3ccccc3)=C(C)C2=O)[C@H]1O` displayed an IC50 greater than 10 µM.

For the compound `CC/C=C\[C@H](O)[C@H](O)C1=C(C)C(=O)[C@]2(O1)[C@@H](OC)N[C@@](OC)(C(=O)c1ccccc1)[C@@H]2O` [6-O-METHOXYPSEUROTIN A], the IC50 in [1] is greater than 10 µM.

In turn, `CC/C=C\[C@H](O)[C@H](O)C1=C(C)C(=O)[C@]2(O1)C(=O)N(C)[C@@](OC)(C(=O)c1ccccc1)[C@@H]2O` [7-N-METHYLPSEUROTIN A] returned an IC50 in [1] greater than 10 µM.

With `CC/C=C\[C@H](O)[C@H](O)C1=C(C)C(=O)[C@]2(O1)C(=O)N[C@@](OCC)(C(=O)c1ccccc1)[C@@H]2O` [8-ETHOXYPSEUROTIN A], the IC50 in [1] was greater than 10 µM.

In test [1], `CC/C=C\[C@H](O)[C@H](O)C1=C(C)C(=O)[C@]2(C[C@](OC)(C(=O)c3ccccc3)NC2=O)O1` [9-DEOXYPSEUROTIN A] displayed an IC50 greater than 10 µM.

For the compound `CC/C=C\[C@H](O)CC1=C(C)C(=O)[C@]2(O1)C(=O)N[C@@](OC)(C(=O)c1ccccc1)[C@@H]2O` [10-DEOXYPSEUROTIN A], the IC50 was greater than 10 µM in test [2], 4.4 µM in test [4] and 0.066 µM in [1]. The result in test [5] and in test [6] was Active. The compound further displayed an inhibition at 10 µM in test [3] of 0%. In addition, the Ratio is given as 23 in test [7], 3.5 in test [8] and 44 in test [9].

On to `CC/C=C\[C@H](OC)[C@H](O)C1=C(C)C(=O)[C@]2(O1)C(=O)N[C@@](OC)(C(=O)c1ccccc1)[C@@H]2O` [11-O-METHYLPSEUROTIN A], for which the IC50 in test [1] is greater than 10 µM.

`CCC1CC1[C@H](O)[C@H](O)C1=C(C)C(=O)[C@]2(O1)C(=O)N[C@@](OC)(C(=O)c1ccccc1)[C@@H]2O` (stereo partly specified) [12,13-CYCLOPROPYLPSEUROTIN A] showed an IC50 in test [1] greater than 10 µM.

`CC[C@H](Br)[C@@H](Br)[C@H](O)[C@H](O)C1=C(C)C(=O)[C@]2(O1)C(=O)N[C@@](OC)(C(=O)c1ccccc1)[C@@H]2O` [12,13-DIBROMOPSEUROTIN A] registered an IC50 in test [1] greater than 10 µM.

With `CCCC[C@H](O)[C@H](O)C1=C(C)C(=O)[C@]2(O1)C(=O)N[C@@](OC)(C(=O)c1ccccc1)[C@@H]2O` [12,13-DIHYDROXYPSEUROTIN A], the IC50 in test [1] was greater than 10 µM.

With `CCC1OC1[C@H](O)[C@H](O)C1=C(C)C(=O)[C@]2(O1)C(=O)N[C@@](OC)(C(=O)c1ccccc1)[C@@H]2O` (stereo partly specified) [13-EPOXYPSEUROTIN A], the IC50 in test [1] is greater than 10 µM.

With `CC/C=C\[C@H](O)[C@H](O)C1=C(C)C(=O)[C@]2(O1)C(=O)N[C@@](OC)(C(O)c1ccccc1)[C@@H]2O` (stereo partly specified) [17-DIHYDROPSEUROTIN A], the IC50 in test [1] is greater than 10 µM.

Compound `C[C@]12C=CC(=O)C=C1CC[C@@H]1[C@@H]2[C@@H](O)C[C@@]2(C)[C@H]1CC[C@]2(O)C(=O)CO` [PREDNISOLONE] yielded an inhibition at 10 µM in test [3] of 84%. For the same compound, the Ratio was 0.8 in [7], 1 in [8] and 0.4 in test [9]. Besides, the values for the IC50 in test [4], in test [1] and in [10] were greater than 10 µM, 0.0059 µM and 0.078 µM, respectively.

For `CC/C=C\[C@H](O)[C@H](O)C1=C(C)C(=O)[C@]2(O1)C(=O)N[C@@](OC)(C(=O)c1ccccc1)[C@@H]2O` [PSEUROTIN A], the IC50 in test [2] was greater than 10 µM; in test [4] it was greater than 10 µM; in test [1] it was 3.6 µM; in [10], greater than 10 µM. In [3], 10 µM produced 0% inhibition. In addition, the outcome in test [11] was inactive.

In [1], `CO[C@@]1(C(=O)c2ccccc2)NC(=O)[C@]2(OC([C@@H](O)[C@@H](O)/C=C/C(C)=O)=C(C)C2=O)[C@H]1O` [PSEUROTIN E] showed an IC50 greater than 10 µM.

Compound `CC/C=C\[C@H](O)[C@H](O)C1=C(C)C(=O)[C@]2(O1)C(=O)N[C@@](O)(C(=O)c1ccccc1)[C@@H]2O` [PSEUROTIN F2] registered an IC50 in [1] greater than 10 µM.

With `CC/C=C\[C@H]1O[C@@H]1C1=C(C)C(=O)[C@]2(O1)C(=O)N[C@@](OC)(C(=O)c1ccccc1)[C@@H]2O` [SYNERAZOL], the IC50 in test [2] was greater than 10 µM; in test [4] it was greater than 10 µM; in test [1], 0.26 µM; in [10] it was 3.1 µM. This compound also came in with an inhibition at 10 µM in [3] of 54%.

`CC/C=C\[C@H](OC(C)=O)[C@H](OC(C)=O)C1=C(C)C(=O)[C@]2(O1)C(=O)N(C(C)=O)[C@@](OC)(C(=O)c1ccccc1)[C@@H]2OC(C)=O` [TETRAACETYLPSEUROTIN A] had an IC50 in test [1] greater than 10 µM.

On to `CC/C=C\[C@H](OC(C)=O)[C@H](OC(C)=O)C1=C(C)C(=O)[C@]2(O1)C(=O)N[C@@](OC)(C(=O)c1ccccc1)[C@@H]2OC(C)=O` [TRIACETYLPSEUROTIN A], for which, in [1], the IC50 was greater than 10 µM.
